Source: US10023570B2 (Array BioPharma, Inc., priority 2015, dated 2018)
pIC50: −log10 of the molar value.

Target: human KDR protein in HEK-293 cells (Homo sapiens (Human), UniProt P35968)
Assay: KDR Cell Assay (phospho-KDR in HEK-293 cells expressing inducible KDR)
Format: cell-based
Details: pKDR Cell HEK 10% FBS IC50, HEK-293 cells expressing inducible KDR, VEGF stimulated, 10% FBS
Summary of the method: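 HEK-293 cells with inducible human KDR were treated with compound for 1 h in DMEM (0.25% DMSO final), then lysed. Phospho-KDR was quantified by Meso Scale immunoassay, expressed as percent of control, and IC50 taken where a 4-parameter logistic fit crossed 50 POC.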

human KDR protein in HEK-293 cells, sequence (P35968 20-1356): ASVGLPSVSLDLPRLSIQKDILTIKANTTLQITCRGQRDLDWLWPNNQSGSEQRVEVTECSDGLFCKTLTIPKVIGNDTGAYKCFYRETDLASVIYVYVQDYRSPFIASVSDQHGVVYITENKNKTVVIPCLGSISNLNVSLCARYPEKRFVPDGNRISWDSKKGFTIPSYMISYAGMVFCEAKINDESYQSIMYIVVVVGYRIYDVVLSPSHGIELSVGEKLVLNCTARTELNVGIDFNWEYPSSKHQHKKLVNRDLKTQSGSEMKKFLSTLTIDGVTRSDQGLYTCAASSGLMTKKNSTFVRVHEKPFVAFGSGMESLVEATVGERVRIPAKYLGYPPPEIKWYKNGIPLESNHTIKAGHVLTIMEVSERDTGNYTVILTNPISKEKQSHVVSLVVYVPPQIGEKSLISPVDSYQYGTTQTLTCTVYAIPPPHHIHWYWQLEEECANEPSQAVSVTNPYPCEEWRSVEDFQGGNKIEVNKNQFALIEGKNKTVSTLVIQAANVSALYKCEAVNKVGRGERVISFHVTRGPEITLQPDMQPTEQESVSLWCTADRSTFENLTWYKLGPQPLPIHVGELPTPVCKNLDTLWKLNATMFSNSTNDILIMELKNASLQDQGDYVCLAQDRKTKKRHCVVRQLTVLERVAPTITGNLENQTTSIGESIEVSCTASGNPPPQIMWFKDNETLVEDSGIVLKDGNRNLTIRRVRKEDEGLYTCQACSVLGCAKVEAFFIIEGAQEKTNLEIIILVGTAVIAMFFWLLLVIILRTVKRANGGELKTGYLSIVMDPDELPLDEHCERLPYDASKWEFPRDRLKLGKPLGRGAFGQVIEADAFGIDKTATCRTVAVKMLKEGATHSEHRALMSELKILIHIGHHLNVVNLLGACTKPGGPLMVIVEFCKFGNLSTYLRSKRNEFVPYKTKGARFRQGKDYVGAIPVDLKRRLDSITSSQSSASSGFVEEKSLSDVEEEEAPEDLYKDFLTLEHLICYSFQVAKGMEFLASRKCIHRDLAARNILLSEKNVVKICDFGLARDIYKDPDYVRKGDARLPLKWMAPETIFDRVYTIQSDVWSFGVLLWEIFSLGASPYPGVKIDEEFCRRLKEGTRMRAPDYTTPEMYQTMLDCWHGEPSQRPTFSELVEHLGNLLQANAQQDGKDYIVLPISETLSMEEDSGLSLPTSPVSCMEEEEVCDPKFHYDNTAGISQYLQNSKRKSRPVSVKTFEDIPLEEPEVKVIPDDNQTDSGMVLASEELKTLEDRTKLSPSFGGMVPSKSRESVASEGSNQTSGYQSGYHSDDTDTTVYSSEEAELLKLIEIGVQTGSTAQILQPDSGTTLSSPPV

SMILES	pIC50
C[C@@H](CO)Cn1cc(-c2cc(-c3ccc(N4CCN(C(=O)CC(C)(C)C)CC4)cc3)c3c(C#N)cnn3c2)cn1 [Example 306, (R)-4-(4-(4-(3,3-dimethylbutanoyl)piperazin-1-yl)phenyl)-6-(1-(3-hydroxy-2-methylpropyl)-1H-pyrazol-4-yl)pyrazolo[1,5-a]pyridine-3-carbonitrile]	6.06
C[C@H](CO)Cn1cc(-c2cc(-c3ccc(N4CCN(C(=O)CC(C)(C)C)CC4)cc3)c3c(C#N)cnn3c2)cn1 [Example 307, (S)-4-(4-(4-(3,3-dimethylbutanoyl)piperazin-1-yl)phenyl)-6-(1-(3-hydroxy-2-methylpropyl)-1H-pyrazol-4-yl)pyrazolo[1,5-a]pyridine-3-carbonitrile]	6.06
Cn1ccc(-c2cc(-c3ccc(N4CCN(C(=O)CC(C)(C)C)CC4)cc3)c3c(C#N)cnn3c2)n1 [Example 309, 4-(4-(4-(3,3-dimethylbutanoyl)piperazin-1-yl)phenyl)-6-(1-methyl-1H-pyrazol-3-yl)pyrazolo[1,5-a]pyridine-3-carbonitrile]	5.32
Cc1cc(-c2cc(-c3ccc(N4CCN(C(=O)CC(C)(C)C)CC4)cc3)c3c(C#N)cnn3c2)n[nH]1 [Example 310, 4-(4-(4-(3,3-dimethylbutanoyl)piperazin-1-yl)phenyl)-6-(5-methyl-1H-pyrazol-3-yl)pyrazolo[1,5-a]pyridine-3-carbonitrile]	5.76
Cn1cc(-c2cc(-c3ccc(N4CCN(C(=O)[C@H](O)c5ccccc5)CC4)nc3)c3ccnn3c2)cn1 [Example 313, (R)-2-hydroxy-1-(4-(5-(6-(1-methyl-1H-pyrazol-4-yl)pyrazolo[1,5-a]pyridin-4-yl)pyridin-2-yl)piperazin-1-yl)-2-phenylethanone]	≤ 5.30
Cn1cc(-c2cc(-c3ccc(N4CCN(C(=O)C(O)c5ccc(F)cc5F)CC4)nc3)c3ccnn3c2)cn1 (stereo not drawn) [Example 317, 2-(2,4-difluorophenyl)-2-hydroxy-1-(4-(5-(6-(1-methyl-1H-pyrazol-4-yl)pyrazolo[1,5-a]pyridin-4-yl)pyridin-2-yl)piperazin-1-yl)ethanone]	≤ 5.30
Cn1cc(-c2cc(-c3ccc(N4CCN(C(=O)[C@H](O)c5ccccc5Cl)CC4)nc3)c3ccnn3c2)cn1 [Example 320, (R)-2-(2-chlorophenyl)-2-hydroxy-1-(4-(5-(6-(1-methyl-1H-pyrazol-4-yl)pyrazolo[1,5-a]pyridin-4-yl)pyridin-2-yl)piperazin-1-yl)ethanone]	≤ 5.30
Cn1cc(-c2cc(-c3ccc(N4CCN(C(=O)[C@H](O)c5cccc(Cl)c5)CC4)nc3)c3ccnn3c2)cn1 [Example 322, (R)-2-(3-chlorophenyl)-2-hydroxy-1-(4-(5-(6-(1-methyl-1H-pyrazol-4-yl)pyrazolo[1,5-a]pyridin-4-yl)pyridin-2-yl)piperazin-1-yl)ethanone]	5.31
Cn1cc(-c2cc(-c3ccc(N4CCN(C(=O)[C@H](O)c5ccccc5)CC4)nc3)c3c(Cl)cnn3c2)cn1 [Example 327, (R)-1-(4-(5-(3-chloro-6-(1-methyl-1H-pyrazol-4-yl)pyrazolo[1,5-a]pyridin-4-yl)pyridin-2-yl)piperazin-1-yl)-2-hydroxy-2-phenylethanone]	6.22
CN(C)CC(=O)N1CC2CCC(C1)N2c1ccc(-c2cc(-c3cnn(C)c3)cn3ncc(Cl)c23)cn1 [Example 336, 1-(8-(5-(3-chloro-6-(1-methyl-1H-pyrazol-4-yl)pyrazolo[1,5-a]pyridin-4-yl)pyridin-2-yl)-3,8-diazabicyclo[3.2.1]octan-3-yl)-2-(dimethylamino)ethanone]	6.21
Cn1cc(-c2cc(-c3ccc(N4CCCC4)nc3)c3c(Cl)cnn3c2)cn1 [Example 339, 3-chloro-6-(1-methyl-1H-pyrazol-4-yl)-4-(6-(pyrrolidin-1-yl)pyridin-3-yl)pyrazolo[1,5-a]pyridine]	5.43
Cn1cc(-c2cc(-c3ccc(N4CCN(C(=O)C5(c6ccc(Cl)cc6)CC5)CC4)nc3)c3c(C#N)cnn3c2)cn1 [Example 341, 4-(6-(4-(1-(4-chlorophenyl)cyclopropanecarbonyl)piperazin-1-yl)pyridin-3-yl)-6-(1-methyl-1H-pyrazol-4-yl)pyrazolo[1,5-a]pyridine-3-carbonitrile]	6.62
Cn1cc(-c2cc(-c3ccc(N4CCN(C(=O)C5(c6ccccc6)CCOCC5)CC4)nc3)c3c(C#N)cnn3c2)cn1 [Example 342, 6-(1-methyl-1H-pyrazol-4-yl)-4-(6-(4-(4-phenyltetrahydro-2H-pyran-4-carbonyl)piperazin-1-yl)pyridin-3-yl)pyrazolo[1,5-a]pyridine-3-carbonitrile]	5.32
Cn1cc(-c2cc(-c3ccc(N4CCN(C(=O)C5(c6ccc(Cl)cc6Cl)CC5)CC4)nc3)c3c(C#N)cnn3c2)cn1 [Example 343, 4-(6-(4-(1-(2,4-dichlorophenyl)cyclopropanecarbonyl)piperazin-1-yl)pyridin-3-yl)-6-(1-methyl-1H-pyrazol-4-yl)pyrazolo[1,5-a]pyridine-3-carbonitrile]	5.78
COc1ccc(C2(C(=O)N3CCN(c4ccc(-c5cc(-c6cnn(C)c6)cn6ncc(C#N)c56)cn4)CC3)CC2)cc1 [Example 344, 4-(6-(4-(1-(4-methoxyphenyl)cyclopropanecarbonyl)piperazin-1-yl)pyridin-3-yl)-6-(1-methyl-1H-pyrazol-4-yl)pyrazolo[1,5-a]pyridine-3-carbonitrile]	6.41
Cn1cc(-c2cc(-c3ccc(N4CCN(C(=O)C5(c6ccc(F)cc6)CC5)CC4)nc3)c3c(C#N)cnn3c2)cn1 [Example 345, 4-(6-(4-(1-(4-fluorophenyl)cyclopropanecarbonyl)piperazin-1-yl)pyridin-3-yl)-6-(1-methyl-1H-pyrazol-4-yl)pyrazolo[1,5-a]pyridine-3-carbonitrile]	6.52
Cn1cc(-c2cc(-c3ccc(N4CCN(C(=O)C5(C(F)(F)F)CC5)CC4)nc3)c3c(C#N)cnn3c2)cn1 [Example 346, 6-(1-methyl-1H-pyrazol-4-yl)-4-(6-(4-(1-(trifluoromethyl)cyclopropanecarbonyl)piperazin-1-yl)pyridin-3-yl)pyrazolo[1,5-a]pyridine-3-carbonitrile]	5.75
Cn1cc(-c2cc(-c3ccc(N4CCN(C(=O)C5(C#N)CC5)CC4)nc3)c3c(C#N)cnn3c2)cn1 [Example 348, 4-(6-(4-(1-cyanocyclopropane-carbonyl)piperazin-1-yl)pyridin-3-yl)-6-(1-methyl-1H-pyrazol-4-yl)pyrazolo[1,5-a]pyridine-3-carbonitrile]	5.85
Cn1cc(-c2cc(-c3ccc(N4CCN(C(=O)C5(c6cccc(F)c6)CC5)CC4)nc3)c3c(C#N)cnn3c2)cn1 [Example 349, 4-(6-(4-(1-(3-fluorophenyl)cyclopropanecarbonyl)piperazin-1-yl)pyridin-3-yl)-6-(1-methyl-1H-pyrazol-4-yl)pyrazolo[1,5-a]pyridine-3-carbonitrile]	6.39
Cn1cc(-c2cc(-c3ccc(N4CCN(C(=O)C5(c6cnccn6)CC5)CC4)nc3)c3c(C#N)cnn3c2)cn1 [Example 350, 6-(1-methyl-1H-pyrazol-4-yl)-4-(6-(4-(1-(pyrazin-2-yl)cyclopropane-carbonyl)piperazin-1-yl)pyridin-3-yl)pyrazolo[1,5-a]pyridine-3-carbonitrile]	5.73
CN(C)C(C(=O)N1CCN(c2ccc(-c3cc(-c4cnn(C)c4)cn4ncc(C#N)c34)cn2)CC1)c1ccc(F)cc1 (stereo not drawn) [Example 351, 4-(6-(4-(2-(dimethylamino)-2-(4-fluorophenyl)acetyl)piperazin-1-yl)pyridin-3-yl)-6-(1-methyl-1H-pyrazol-4-yl)pyrazolo[1,5-a]pyridine-3-carbonitrile]	5.76
COCC1(C(=O)N2CCN(c3ccc(-c4cc(-c5cnn(C)c5)cn5ncc(C#N)c45)cn3)CC2)CC1 [Example 353, 4-(6-(4-(1-(methoxymethyl)cyclopropanecarbonyl)piperazin-1-yl)pyridin-3-yl)-6-(1-methyl-1H-pyrazol-4-yl)pyrazolo[1,5-a]pyridine-3-carbonitrile]	5.77
COCC1(C(=O)N2CCN(c3ccc(-c4cc(-c5cnn(C)c5)cn5ncc(C#N)c45)cn3)CC2)CCC1 [Example 354, 4-(6-(4-(1-(methoxymethyl)cyclobutanecarbonyl)piperazin-1-yl)pyridin-3-yl)-6-(1-methyl-1H-pyrazol-4-yl)pyrazolo[1,5-a]pyridine-3-carbonitrile]	5.89
Cn1cc(-c2cc(-c3ccc(N4CCN(C(=O)C5(c6cccc(Cl)c6)CC5)CC4)nc3)c3c(C#N)cnn3c2)cn1 [Example 356, 4-(6-(4-(1-(3-chlorophenyl)cyclopropane-1-carbonyl)piperazin-1-yl)pyridin-3-yl)-6-(1-methyl-1H-pyrazol-4-yl)pyrazolo[1,5-a]pyridine-3-carbonitrile 2,2,2-trifluoroacetate]	6.90
Cn1cc(-c2cc(-c3ccc(N4CCN(C(=O)Cc5ccc(OC(F)(F)F)cc5)CC4)nc3)c3c(C#N)cnn3c2)cn1 [Example 357, 6-(1-methyl-1H-pyrazol-4-yl)-4-(6-(4-(2-(4-(trifluoromethoxy)phenyl)acetyl)piperazin-1-yl)pyridin-3-yl)pyrazolo[1,5-a]pyridine-3-carbonitrile 2,2,2-trifluoroacetate]	5.69
Cn1cc(-c2cc(-c3ccc(N4CCN(C(=O)c5ccccc5N5CCOCC5)CC4)nc3)c3c(C#N)cnn3c2)cn1 [Example 358, 6-(1-methyl-1H-pyrazol-4-yl)-4-(6-(4-(2-morpholinobenzoyl)piperazin-1-yl)pyridin-3-yl)pyrazolo[1,5-a]pyridine-3-carbonitrile bis(2,2,2-trifluoroacetate)]	6.79
Cn1cc(-c2cc(-c3ccc(N4CCN(C(=O)C5(c6ccccn6)CC5)CC4)nc3)c3c(C#N)cnn3c2)cn1 [Example 359, 6-(1-methyl-1H-pyrazol-4-yl)-4-(6-(4-(1-(pyridine-2-yl)cyclopropane-1-carbonyl)piperazin-1-yl)pyridin-3-yl)pyrazolo[1,5-a]pyridine-3-carbonitrile bis(2,2,2-trifluoroacetate)]	6.04
